This is an account of results in BindingDB's records for doi:10.1124/jpet.102.038075 (Nih, 2002).

The target in experiment [1] is T1, Vasoactive intestinal polypeptide receptor 2 (Homo sapiens, UniProt P41587).
T1 sequence (P41587 whole entry): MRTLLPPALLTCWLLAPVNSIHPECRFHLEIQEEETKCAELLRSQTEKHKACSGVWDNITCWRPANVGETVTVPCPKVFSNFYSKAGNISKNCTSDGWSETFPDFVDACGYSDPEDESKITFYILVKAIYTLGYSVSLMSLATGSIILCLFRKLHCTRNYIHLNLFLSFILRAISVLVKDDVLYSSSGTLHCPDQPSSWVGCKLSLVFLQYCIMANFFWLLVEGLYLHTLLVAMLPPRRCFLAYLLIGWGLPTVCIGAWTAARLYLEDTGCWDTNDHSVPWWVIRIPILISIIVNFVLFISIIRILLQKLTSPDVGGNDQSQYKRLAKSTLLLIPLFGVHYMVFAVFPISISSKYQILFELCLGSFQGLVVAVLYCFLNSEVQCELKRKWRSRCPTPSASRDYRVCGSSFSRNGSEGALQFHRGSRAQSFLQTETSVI

The target of experiment [2] is T2, Vasoactive intestinal polypeptide receptor 1 (Homo sapiens, UniProt P32241).
T2 sequence (P32241 whole entry): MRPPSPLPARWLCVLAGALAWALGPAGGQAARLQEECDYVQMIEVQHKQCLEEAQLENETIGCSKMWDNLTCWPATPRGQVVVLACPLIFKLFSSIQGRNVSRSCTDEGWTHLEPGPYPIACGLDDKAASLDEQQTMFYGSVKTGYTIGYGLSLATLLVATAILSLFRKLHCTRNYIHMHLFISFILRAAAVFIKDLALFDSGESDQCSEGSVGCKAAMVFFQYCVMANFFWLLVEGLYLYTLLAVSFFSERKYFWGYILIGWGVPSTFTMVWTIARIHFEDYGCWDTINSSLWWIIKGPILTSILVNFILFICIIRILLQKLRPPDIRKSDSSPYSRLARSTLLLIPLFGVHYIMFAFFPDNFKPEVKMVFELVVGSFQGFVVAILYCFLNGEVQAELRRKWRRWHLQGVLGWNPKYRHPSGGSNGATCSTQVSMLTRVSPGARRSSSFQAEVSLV

Experiment [3] addresses T3, Vasoactive intestinal polypeptide receptor 2 (Rattus norvegicus, UniProt P35000).
T3 sequence (P35000 whole entry): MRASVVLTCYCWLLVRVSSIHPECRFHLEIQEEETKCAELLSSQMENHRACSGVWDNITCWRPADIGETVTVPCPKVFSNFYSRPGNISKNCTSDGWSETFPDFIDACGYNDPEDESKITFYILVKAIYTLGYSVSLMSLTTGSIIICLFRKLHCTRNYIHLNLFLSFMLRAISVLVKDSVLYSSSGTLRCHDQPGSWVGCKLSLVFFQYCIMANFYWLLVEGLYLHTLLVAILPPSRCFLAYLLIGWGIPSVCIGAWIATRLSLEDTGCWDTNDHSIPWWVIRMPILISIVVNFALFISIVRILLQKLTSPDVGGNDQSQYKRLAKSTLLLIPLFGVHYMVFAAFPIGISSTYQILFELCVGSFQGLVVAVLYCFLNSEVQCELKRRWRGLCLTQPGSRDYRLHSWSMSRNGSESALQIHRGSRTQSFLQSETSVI

Where “and” joins values, the source holds several entries; their conditions need not be identical. Equal values may be shown once. Bridge positions count the residues as written; N and C are the ends. Square brackets hold non-standard residues; d marks the D form. Peptide text beside a SMILES is read from it. Nle = CCCC[C@H](N)C(=O)O

As usually defined, the Ki is the dissociation constant of the complex between target and ligand, obtained from inhibition or displacement. Read a low Ki as a stronger hold on the target. As for `CCCC[C@H](NC(=O)[C@H](CCC(N)=O)NC(=O)[C@H](CCCCN)NC(=O)[C@H](CCCNC(=N)N)NC(=O)[C@H](CC(C)C)NC(=O)[C@H](CCCCN)NC(=O)[C@@H](NC(=O)[C@H](Cc1ccc(O)cc1)NC(=O)[C@H](CC(N)=O)NC(=O)[C@H](CCC(=O)O)NC(=O)[C@@H](NC(=O)[C@H](Cc1ccccc1)NC(=O)[C@@H](NC(=O)[C@H](C)NC(=O)[C@H](CC(=O)O)NC(=O)[C@H](CO)NC(=O)[C@H](Cc1c[nH]cn1)NC(C)=O)C(C)C)[C@@H](C)O)[C@@H](C)O)C(=O)N[C@@H](C)C(=O)N[C@@H](C)C(=O)N[C@@H](CCCCN)C(=O)N[C@H]1CCCCNC(=O)C[C@@H](C(=O)N[C@@H](CC(C)C)C(=O)N[C@@H](CCCCN)C(=O)N[C@@H](CCCCN)C(=O)NCC(=O)NCC(=O)N[C@H](C(N)=O)[C@@H](C)O)NC(=O)[C@H](CC(N)=O)NC(=O)[C@H](CC(C)C)NC(=O)[C@H](Cc2ccc(O)cc2)NC1=O` [Ac-L-His-L-Ser-L-Asp-L-Ala-L-Val-L-Phe-L-Thr-L-Glu-L-Asn-L-Tyr-L-Thr-L-Lys-L-Leu-L-Arg-L-Lys-L-Gln-L-Nle-L-Ala-L-Ala-L-Lys-L-Lys(1)-L-Tyr-L-Leu-L-Asn-L-Asp(1)-L-Leu-L-Lys-L-Lys-Gly-Gly-L-Thr-NH2] (Ac-HSDAVFTENYTKLRKQ[Nle]AAKKYLNDLKKGGT-NH2; lactam 21-25), the inhibitory constant (Ki) in experiment [1] was 2.1 nM and 15.9 nM and 3.9 nM; in experiment [2] it was 1200 nM and 1020 nM. With `CC[C@H](C)[C@H](NC(=O)[C@H](CO)NC(=O)[C@H](CC(N)=O)NC(=O)[C@H](CC(C)C)NC(=O)[C@H](Cc1ccc(O)cc1)NC(=O)[C@H](CCCCN)NC(=O)[C@H](CCCCN)NC(=O)[C@@H](NC(=O)[C@H](C)NC(=O)[C@H](CCSC)NC(=O)[C@H](CCC(N)=O)NC(=O)[C@H](CCCCN)NC(=O)[C@H](CCCN=C(N)N)NC(=O)[C@H](CC(C)C)NC(=O)[C@H](CCCN=C(N)N)NC(=O)[C@@H](NC(=O)[C@H](Cc1ccc(O)cc1)NC(=O)[C@H](CC(N)=O)NC(=O)[C@H](CC(=O)O)NC(=O)[C@H](C)NC(=O)[C@H](Cc1ccccc1)NC(=O)[C@@H](NC(=O)[C@H](C)NC(=O)[C@H](CC(=O)O)NC(=O)[C@H](CO)NC(=O)[C@@H](N)Cc1cnc[nH]1)C(C)C)[C@@H](C)O)C(C)C)C(=O)N[C@@H](CC(C)C)C(=O)N[C@@H](CC(N)=O)C(N)=O` [VIP Ala7], the Ki in experiment [1] was 1700 nM and 1120 nM and 3000 nM; in experiment [3], 138 nM and 631 nM. Take “H-ASDAVFTDNYTRLRKQMAVKKYLNSILN-NH2 [VIP Ala1]”: the inhibition constant (Ki) was 209 nM and 251 nM and 559 nM in experiment [1]; 75.7 nM and 479 nM in experiment [3]. Regarding “H-HADAVFTDNYTRLRKQMAVKKYLNSILN-NH2 [VIP Ala2]”, in experiment [1], the Ki was 3.4 nM and 3.5 nM and 2.1 nM. In the case of “H-HSAAVFTDNYTRLRKQMAVKKYLNSILN-NH2 [VIP Ala3]”, the Ki in experiment [1] is 977 nM and 1150 nM and 2420 nM; in experiment [3], 138 nM and 546 nM. As for “H-HSDAAFTDNYTRLRKQMAVKKYLNSILN-NH2 [VIP Ala5]”, the inhibition constant (Ki) in experiment [1] was 12.2 nM and 48.1 nM and 120 nM; in experiment [3], 13.2 nM and 23 nM.

With “H-HSDAVFTANYTRLRKQMAVKKYLNSILN-NH2 [VIP Ala8]”, the Ki in experiment [1] was 4.4 nM and 2.7 nM and 13.3 nM. For the compound “H-HSDAVFTDAYTRLRKQMAVKKYLNSILN-NH2 [VIP Ala9]”, the inhibition constant Ki in experiment [1] was 4.3 nM and 3.2 nM and 6 nM. Turning to “H-HSDAVFTDNATRLRKQMAVKKYLNSILN-NH2 [VIP Ala10]”, the inhibitory constant (Ki) was 3000 nM in experiment [1]; 724 nM and 2660 nM in experiment [3].

On to “H-HSDAVFTDNYTALRKQMAVKKYLNSILN-NH2 [VIP Ala12]”, for which the Ki in experiment [1] was 331 nM and 676 nM and 288 nM; in experiment [3], 25.1 nM and 251 nM.

Take “H-HSDAVFTDNYTRARKQMAVKKYLNSILN-NH2 [VIP Ala13]”: the Ki in experiment [1] was 48.9 nM and 81.3 nM and 52.3 nM. On the same count and under the same terms, the result for “H-HSDAVFTDNYTRLAKQMAVKKYLNSILN-NH2 [VIP Ala14]” reads 47.9 nM and 110 nM and 166 nM. As for “H-HSDAVFTDNYTRLRAQMAVKKYLNSILN-NH2 [VIP Ala15]”, the Ki in experiment [1] was 19.1 nM and 40.7 nM and 38.4 nM; in experiment [3] it was 1.9 nM and 16.6 nM. On to “H-HSDAVFTDNYTRLRKQAAVKKYLNSILN-NH2 [VIP Ala17]”, for which, in experiment [3], the Ki is 2.3 nM and 5 nM. With “H-HSDAVFTDNYTRLRKQMAAKKYLNSILN-NH2 [VIP Ala19]”, the Ki in experiment [1] is 2.4 nM and 2.6 nM and 5 nM; in experiment [3], 0.43 nM and 3.4 nM.

On to “H-HSDAVFTDNYTRLRKQMAVAKYLNSILN-NH2 [VIP Ala20]”, for which the Ki in experiment [1] was 10 nM and 12.6 nM and 21.9 nM.

Take “H-HSDAVFTDNYTRLRKQMAVKAYLNSILN-NH2 [VIP Ala21]”: the Ki in experiment [1] is 8.1 nM and 17 nM and 12.6 nM; in experiment [3] it was 1.3 nM and 12.4 nM. With “H-HSDAVFTDNYTRLRKQMAVKKALNSILN-NH2 [VIP Ala22]”, the inhibition constant (Ki) in experiment [1] was 3000 nM; in experiment [3], 759 nM and 3000 nM. In the case of “H-HSDAVFTDNYTRLRKQMAVKKYANSILN-NH2 [VIP Ala23]”, the Ki in experiment [1] was 1700 nM and 2820 nM and 2710 nM; in experiment [3] it was 110 nM and 972 nM. With “H-HSDAVFTDNYTRLRKQMAVKKYLASILN-NH2 [VIP Ala24]”, the Ki in experiment [1] was 4.1 nM and 14.1 nM and 18.6 nM; in experiment [3], 0.4 nM and 3.2 nM. Turning to “H-HSDAVFTDNYTRLRKQMAVKKYLNSALN-NH2 [VIP Ala26]”, the inhibition constant Ki in experiment [1] was 9.1 nM and 11.8 nM and 15.2 nM and 50.1 nM and 49 nM and 27.9 nM. For “H-HSDAVFTDNYTRLRKQMAVKKYLNSIAN-NH2 [VIP Ala27]”, in experiment [1], the inhibition constant (Ki) was 19.5 nM and 79.4 nM and 89.1 nM. On the same count and under the same terms, the figure for “H-HSDAVFTDNYTRLRKQMAVKKYLNSILA-NH2 [VIP Ala28]” is 34.7 nM and 21 nM and 27.2 nM. As to “H-HSDAVFTNSYRKVLKRLSARKLLQDIL-NH2 [NSC_0]”, the Ki in experiment [1] is 3000 nM; in experiment [2], 1.7 nM and 7.7 nM and 8.9 nM.
